Patent US10174097B2, “Specific A-beta species-binding peptides for the therapy and/or diagnosis of Alzheimer's dementia” (Forschungszentrum Juelich GmbH, priority 2015, dated 2019)
“Also recorded” adds a separate entry of the source. Where a SMILES comes first, the peptide text is derived from it. [ ]: non-standard residue; d: D form. dPhe(4-F) = N[C@H](Cc1ccc(F)cc1)C(=O)O

Columns and labels:
SH-SY5Y cells [1] = assay: MTT assay on SH-SY5Y cells with Abeta co-incubation; format: cell-based; conditions: for Reduction of the toxicity caused by Abeta: co-incubating Abeta with peptide in various concentrations, FIG. 4b; for Reduction of Abeta toxicity compared to D3: respective concentration with D3, FIG. 4b
Description: (§1) No noteworthy toxicity of the peptides according to the invention in therapeutically relevant concentrations was established in the MTT assay on SH-SY5Y cells known to a person skilled in the art (FIG. 4). […] Based on current knowledge, Abeta oligomer is the toxic species.
(§2) The significances are based on the respective concentration with D3 (* p≤0.05; ** p≤0.01; *** p≤0.001; n. s. not significant).

SH-SY5Y cells [2] = assay: MTT assay on SH-SY5Y cells without Abeta co-incubation; format: cell-based; conditions: FIG. 4a
Description: as §1, §2

Abeta fibrils [3] = biological target: T1, Abeta fibrils (Homo sapiens, UniProt P05067); assay: ThT assay, formation of ThT positive Abeta fibrils; format: biochemical; conditions: for ThT fluorescence during the entire measuring time period: 48 hours, co-incubation with Abeta, FIG. 3
T1 construct: Pre-incubated Abeta was co-incubated with the peptides
T1 sequence (P05067 672-713 limits assumed): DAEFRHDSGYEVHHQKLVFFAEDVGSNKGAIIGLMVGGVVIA

Abeta oligomers [4] = biological target: T2, Abeta oligomers (Homo sapiens, UniProt P05067); assay: QIAD method, elimination of Abeta oligomers (density gradient centrifugation, RP-HPLC); format: biochemical; conditions: for Elimination of Abeta oligomers compared to D3: ratio of Abeta to peptide of 8:1, FIG. 2; for Elimination of Abeta oligomers: ratio of Abeta to peptide of 8:1, fractions 4-6, FIG. 2
T2 sequence (P05067 672-713 limits assumed): as above
Method: Using the QIAD method for the quantitative characterization of amyloid peptides and/or proteins in a sample, it was possible to quantify the properties of the substances. Pre-incubated Abeta was co-incubated with the peptides. The different Abeta species were separated by way of density gradient centrifugation and quantified in the individual fractions by way of RP-HPLC Abeta. The elimination of the Abeta oligomers in fractions 4-6 was analyzed.

Abeta monomers = biological target: T3, Abeta monomers (Homo sapiens, UniProt P05067); assay: Peptide microarray, binding of FITC Abeta monomers to immobilized peptides; conditions: for Binding specificity monomer to fibrils: quotient binding signal to monomers / binding signal to fibrils; for Binding specificity monomer to oligomer: quotient binding signal to monomers / binding signal to oligomers
T3 construct: incubate with FITC Abeta monomers, oligomers, fibrils and FITC for 1 hour at room temperature
T3 sequence (P05067 672-713 limits assumed): as above
Method: (§3) The procedure for identifying peptides that bind specifically to amyloid beta monomer or specifically to amyloid beta oligomers and for determining the binding specificity of peptides within the meaning of the present invention can thus be as follows. Peptide microarrays comprising various peptides immobilized on a surface, such as derivatives of D3, are each incubated with different species of Abeta (such as monomers, oligomers and fibrils) labeled with a fluorescent dye. A peptide microarray is incubated with only the fluorescent dye to serve as the control. So as to ensure the reproducibility of the results, the incubation of the peptide microarrays can be carried out at least three times for each species. The binding of the fluorescence-labeled Abeta to the immobilized peptides is detected by way of the fluorescent dye. The more Abeta binds to the peptide, the higher the fluorescence signal is. The measured fluorescence signals of the reproductions are standardized, and the […]. This avoids binding of the fluorescence-labeled Abeta via the dye. The binding signals of an Abeta species to a peptide are then averaged. So as to determine the binding specificity, the quotient of the species to which the peptide is to specifically bind and another species is found.
(§4) Pretreatment of the peptide microarray slides: • briefly dip 3× in ethanol (96%) and then wash with H2O (30 minutes) • briefly dry by way of centrifuging
(§5) Preparation of monomers and oligomers: • size exclusion chromatography according to Johansson et al. 2006 (Johansson, A.-S. et al. Physiochemical characterization of the Alzheimer's disease-related peptides Aβ1-42Arctic and Aβ1-42 wt. FEBS Journal 273, 2618-2630 (2006)). • oligomers were fractionated at 8-9 ml, monomers at 16-17 ml.
(§6) Carrying out the peptide microarray: • incubate with FITC Abeta monomers, oligomers, fibrils and FITC for 1 hour at room temperature • wash: TBS-T briefly 3× (only TBS-T buffer is replaced), 3×10 minutes in a flacon, 3×H2O, 3×10 minutes • dry by way of centrifugation • The binding of the fluorescence-labeled Abeta to the immobilized peptides is detected by way of the fluorescent dye using the microarray reader FLA800 from Fuji Film. The more Abeta binds to the peptide, the higher is the fluorescence signal. • carrier set mode: slides • resolution: 10 μm • scan mode: high sensitivity (slow): scan pixel at 200 mm/s • laser: 473 nm • filter: 530 DF 20 • photomultiplier tube (PMT) HV (%): 100 • images were stored as .tif files
(§7) The software, AIDA Metrix, from Raytest was used to evaluate the fluorescence signals:
(§8) To ensure the reproducibility of the results, the incubation of the peptide microarrays is carried out at least three times for each species.
(§9) The measured fluorescence signals of the reproductions are standardized using a median-based standardization, and the control was subtracted from the signal. This avoided the binding of the fluorescence-labeled Abeta via the dye.
(§10) The binding signals of an Abeta species to a peptide were averaged.
So as to determine the binding specificity, the quotient of the species to which the peptide is to specifically bind and another species is created.
Example: binding specificity of peptide X to Abeta monomers=binding signal of peptides X to monomers/binding signal of peptides X to oligomers.

transgenic AD mice = conditions: oral administration with drinking water; cited from earlier work
Abeta oligomers [5] = biological target: T2, Abeta oligomers; assay: Peptide microarray, binding of FITC Abeta oligomers to immobilized peptides; conditions: 1 hour at room temperature, control subtracted, averaged
Method: as §3, §4, §5, §6, §7, §8, §9, §10

Abeta fibrils [6] = biological target: T1, Abeta fibrils; assay: Peptide microarray, binding of FITC Abeta fibrils to immobilized peptides; conditions: 1 hour at room temperature, control subtracted, averaged
Method: as §3, §4
Preparation of fibrils: • incubate Abeta over 3 days, centrifuge, discard supernatant and resuspend in buffer (repeat 3 times)
as §6, §7, §8, §9, §10

Row | Molecule | Reduction of the toxicity caused by Abeta (SH-SY5Y cells [1]) | Reduction of Abeta toxicity compared to D3 (SH-SY5Y cells [1]) | Toxic effect of the peptide alone on the cells (SH-SY5Y cells [2]) | ThT fluorescence during the entire measuring time period (Abeta fibrils [3]) | Elimination of Abeta oligomers compared to D3 (Abeta oligomers [4]) | Elimination of Abeta oligomers (Abeta oligomers [4]) [%] | Binding specificity monomer to fibrils (Abeta monomers) | Binding specificity monomer to oligomer (Abeta monomers) | ThT fluorescence (Abeta fibrils [3]; after 48 hours) [rfu] | ThT fluorescence as % of the ThT fluorescence of Abeta control (Abeta fibrils [3]; after 48 hours) [%] | Cognitive abilities of treated transgenic AD mice (transgenic AD mice) | Plaque in treated transgenic AD mice (transgenic AD mice) | Binding signal to Abeta oligomers (Abeta oligomers [5]) [rfu] | Binding signal to Abeta fibrils (Abeta fibrils [6]) [rfu] | Binding specificity with respect to Abeta monomer (Abeta monomers; FIG. 1b, quotient of binding signals) | Binding signal to Abeta monomers (Abeta monomers; peptide microarray, FITC Abeta, 1 hour at room temperature, control subtracted, averaged) [rfu]
1 | CC[C@@H](C)[C@@H](NC(=O)[C@@H](CCCNC(=N)N)NC(=O)[C@@H](CCCCN)NC(=O)[C@H](N)CCCNC(=N)N)C(=O)N[C@H](CCCNC(=N)N)C(=O)N[C@H](CC(C)C)C(=O)N[C@@H](C(=O)N[C@@H](C(=O)N[C@H](CCCCN)C(=O)N[C@H](CCCCN)C(=O)N[C@H](CCCCN)C(=O)N[C@H](CCCNC(=N)N)C(N)=O)[C@H](C)O)C(C)C [ANK6, rkrirlvtkkkr] (H-[dR][dK][dR][dI][dR][dL][dV][dT][dK][dK][dK][dR]-NH2) | reduced; also recorded: reduction in the Abeta toxicity was achieved | more efficient | do not have a toxic effect | slight increase | significantly more efficiently than D3 | 81±3 | 1.9 | 4.1 | – | – | – | – | – | – | – | –
2 | CC(C)C[C@@H](NC(=O)[C@@H](CCCNC(=N)N)NC(=O)[C@H](NC(=O)[C@@H](CCCNC(=N)N)NC(=O)[C@@H](CCCCN)NC(=O)[C@H](N)CCCNC(=N)N)C(C)C)C(=O)N[C@@H](C(=O)N[C@H](Cc1ccc(O)cc1)C(=O)N[C@H](Cc1c[nH]cn1)C(=O)N[C@H](CCCCN)C(=O)N[C@H](CCCCN)C(=O)N[C@H](CCCNC(=N)N)C(N)=O)C(C)C [ANK5, rkrvrlvyhkkr] (H-[dR][dK][dR][dV][dR][dL][dV][dY][dH][dK][dK][dR]-NH2) | reduced; also recorded: reduction in the Abeta toxicity was achieved | – | do not have a toxic effect | – | significantly more efficiently than D3 | 72±2 | 2.2 | 5.9 | 1029 | 53 | – | – | – | – | – | –
3 | CC[C@@H](C)[C@@H](NC(=O)[C@@H](Cc1c[nH]cn1)NC(=O)[C@H](NC(=O)[C@@H](Cc1ccc(F)cc1)NC(=O)[C@@H](CC(C)C)NC(=O)[C@@H](CCCNC(=N)N)NC(=O)[C@H](NC(=O)[C@@H](CCCNC(=N)N)NC(=O)[C@@H](CCCCN)NC(=O)[C@H](N)CCCNC(=N)N)C(C)C)[C@H](C)O)C(=O)N[C@H](CCCCN)C(=O)N[C@H](CCCNC(=N)N)C(N)=O [ANK7, rkrvrl02thikr] (H-[dR][dK][dR][dV][dR][dL][dPhe(4-F)][dT][dH][dI][dK][dR]-NH2) | reduced; also recorded: reduction in the Abeta toxicity was achieved | – | do not have a toxic effect | slight increase | significantly more efficiently than D3 | 73±1 | 6.8 | 6.4 | – | – | – | – | – | – | – | –
4 | CC[C@@H](C)[C@@H](NC(=O)[C@@H](CCCNC(=N)N)NC(=O)[C@@H](CCCCN)NC(=O)[C@H](N)CCCNC(=N)N)C(=O)N[C@H](CCCNC(=N)N)C(=O)N[C@H](CC(C)C)C(=O)N[C@@H](C(=O)N[C@H](Cc1ccc(O)cc1)C(=O)N[C@H](Cc1c[nH]cn1)C(=O)N[C@H](Cc1c[nH]c2ccccc12)C(=O)N[C@H](CC(N)=O)C(=O)N[C@H](CCCNC(=N)N)C(N)=O)C(C)C [ANK4, rkrirlvyhwnr] (H-[dR][dK][dR][dI][dR][dL][dV][dY][dH][dW][dN][dR]-NH2) | reduced; also recorded: reduction in the Abeta toxicity was achieved | more efficient | do not have a toxic effect | slight increase | – | 59±16 | 4.3 | 3.3 | – | – | – | – | – | – | – | –
5 | rprtrlhthrnr [D3, reference compound] | – | – | – | – | – | 50±10 | 0.6 | 0.8 | – | – | significantly improved cognitive abilities | considerably less plaque | 0.6 | 0.8 | less than 1 | 0.5
